Patent US12686666B2, “Triazine compound salt, crystal form thereof, and production method therefor” (TANABE PHARMA CORPORATION, priority 2020, dated 2026)

Tests used:
[1] = Pharmacokinetics in dogs treated with a promotor (pentagastrin) or an inhibitor (omeprazole) of gastric acid secretion; type: in vivo, dogs (male beagle); settings: dog; for Cmax / AUC(0-inf) / AUC(0-t) / Tmax / half-life: male, beagle, plasma, po, 10 mg, fasted, mean; for Cmax: oral 10 mg/capsule (free form equivalent); for AUC(0-inf) / AUC(0-t) / Tmax / half-life: oral 10 mg/capsule
Protocol: The pharmacokinetics of hydrobromide of the Triazine compound A and the Triazine compound A under gastric acid secretion and gastric pH adjustment was evaluated by using dogs treated with a promotor of gastric acid secretion or an inhibitor of gastric acid secretion according to a crossover method of 2 groups with 4 phases.
Pentagastrin was used in the treatment of a promotor of gastric acid secretion. Pentagastrin (2.8 mg) was dissolved into dimethylsulfoxide (7.0 mL) and water for injection (7.0 mL) to prepare an administration solution, and administered into a muscle in the thigh at a dose of […]. Pentagastrin was administered 0.5 hour before and 0.5 hour after the administration of each test material (hydrobromide of the Triazine compound A (Compound 1 prepared in Example 1) or the Triazine compound A (Compound 10 prepared in Example 1)). Omeprazole was used in the treatment of an inhibitor of gastric acid secretion. Omeprazole (90 mg) was dissolved into a 1:1 mixed solution (22.5 mL) of a 0.1% aqueous solution of sodium hydrogen carbonate (w/v) and polyethyleneglycol 400 to prepare an administration solution, and administered into a saphenous vein of the hind limb at a dose of 1 mg/0.25 mL/kg. Omeprazole was administered 1 hour before the administration of each test material.
After 25 mL of water for injection was administered to each dog by using a syringe having an oral catheter, the hydrobromide of the Triazine compound A or the Triazine compound A was forcedly orally administered to each dog at a dose of 10 mg/capsule (in case of hydrobromide of the Triazine compound A, free form equivalent (i.e., 10 mg in terms of the Triazine compound A)), and additional 25 mL of water for injection was administered to each dog through the syringe having an oral catheter. Each test material was administered under fasting state, and each dog was fed 6 hours after the administration. Each dog was deprived of water from 1 hour before the administration of each test material to 2 hours after the administration.
Tests were carried out by using 6 heads of 4 year-old male beagle and dividing them into two groups, each of which comprises 3 heads. The dogs in Group 1 were subjected to the administration in the order of (Phase 1) omeprazole administration, then the Triazine compound A administration, (Phase 2) omeprazole administration, then the hydrobromide of the Triazine compound A administration, (Phase 3) pentagastrin administration, then the Triazine compound A administration, and (Phase 4) pentagastrin administration, then the hydrobromide of the Triazine compound A administration, and the dogs in Group 2 were subjected to the administration in the order of (Phase 1) omeprazole administration, then the hydrobromide of the Triazine compound A administration, (Phase 2) omeprazole administration, then the Triazine compound A administration, (Phase 3) pentagastrin administration, then the hydrobromide of the Triazine compound A administration, and (Phase 4) pentagastrin administration, then the Triazine compound A administration, and washout period between each phase was 6 or 7 days. After 15 minutes, 30 minutes, 1, 2, 4, 6, 8, and 24 hour(s) from the administration of the hydrobromide of the Triazine compound A or the Triazine compound A, 0.6 mL of whole blood sample was collected under awakening of each dog from a cephalic vein by using a heparin sodium injection. The whole blood sample was processed into a plasma, and the drug concentration of the Triazine compound A was analyzed by using liquid chromatography-tandem mass spectrometry (LC-MS/MS). […]

[2] = biological target: T1, human CYP11B2 (Homo sapiens, UniProt P19099); assay: Aldosterone synthase (CYP11B2) inhibitory activity measurement; type: biochemical; settings: mitochondrial fraction of V79 cells expressing human CYP11B2; deoxycorticosterone substrate; HTRF; read-out: IC50 (aldosterone production inhibition)
T1 construct: expressed in transfected cells; the mitochondrial fraction was used
T1 sequence (P19099 25-503): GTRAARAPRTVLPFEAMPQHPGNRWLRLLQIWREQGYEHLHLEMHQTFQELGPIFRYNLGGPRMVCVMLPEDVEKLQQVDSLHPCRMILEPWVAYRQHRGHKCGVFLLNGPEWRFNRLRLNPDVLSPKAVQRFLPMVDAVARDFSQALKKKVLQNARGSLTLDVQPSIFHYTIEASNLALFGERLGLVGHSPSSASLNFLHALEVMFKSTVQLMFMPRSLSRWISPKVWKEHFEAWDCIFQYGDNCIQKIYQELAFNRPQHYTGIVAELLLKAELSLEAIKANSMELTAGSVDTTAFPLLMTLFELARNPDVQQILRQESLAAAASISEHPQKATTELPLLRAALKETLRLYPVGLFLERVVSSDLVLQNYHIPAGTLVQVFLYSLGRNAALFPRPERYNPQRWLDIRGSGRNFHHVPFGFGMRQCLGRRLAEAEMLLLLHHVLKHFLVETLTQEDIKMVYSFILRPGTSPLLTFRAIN
Protocol: The pcDNA3.1-human CYP11B2 plasmid was transfected into a Chinese hamster lung fibroblast V79 cell line to produce a cell line stably expressing a human CYP11B2 gene.
The cells were cultured and grown in the Dulbecco's modified Eagle's/Ham's medium supplemented with 10% fetal bovine serum and 1% G418 disulfate solution under the environment of 37° C., 95% air, and 5% CO2, and the grown cells were harvested.
Then, the cells were fractionated to obtain mitochondria by reference to a method described in Chabre et al. JCE & M 85 (11) 4060-68, 2000. In particular, the cells suspended in a 5 mmol/L Tris-HCl buffer (pH 7.4) containing 250 mmol/L sucrose were homogenized in a Teflon (registered trademark) Potter Elvehjem homogenizer, and then the suspension was centrifuged (800×g, 15 min). […]
The mitochondrial fraction diluted with a buffer containing 10 mmol/L KH2PO4, 10 mmol/L Tris, 20 mmol/L KCl, 25 mmol/L sucrose, 5 mmol/L MgCl2, and 0.05% bovine serum albumin was dispensed to a 96 well plate. […] The amount of the produced aldosterone in the incubated solution was determined by using HTRF (Homogeneous Time Resolved Fluorescence) method.
IC50 (nmol/L) was calculated by analyzing the aldosterone production inhibition rate (%) of each concentration of the Triazine compound A of the present invention by non-linear regression to a logistic curve.

[3] = Thermal stability evaluation (TG/DTA weight change); type: physicochemical; settings: for Thermal stability TG: weight change: 25-274° C.
Protocol: (§1) Thermal stability was measured and evaluated by using a thermogravimetry/differential thermal analyzer TG/DTA7200 (SII NanoTechnology Inc.) under the following conditions. • Rate of temperature increase: 10° C./min • Range of temperature increase: 25 to 300° C. • Atmosphere: nitrogen 200 mL/min <Hygroscopicity or Deliquescency Evaluation>
as §1, with “Inc.) under the following conditions • Rate of temperature increase: 10° C./min • Range of temperature increase: 30 to 300° C. • Atmosphere: nitrogen 200 mL/min • or • using a TGA/DSC1 thermogravimetric analyzer (manufactured by Mettler Toledo, STARe system)” for “Inc.)”, “nitrogen 50” for “nitrogen 200”

[4] = Hygroscopicity or deliquescency evaluation (moisture adsorption, DVS); type: physicochemical
Protocol: Hygroscopicity or deliquescency was evaluated as follows by using a moisture adsorption measurement device DVS-1 or DVS-intrinsic (Surface Measurement Systems Limited). Each sample (about 5 mg) was placed into an aluminum plate of which the tare weight had been corrected in advance, and the plate was hung on the precision balance of said device to precisely measure the weight at the start of measurement. The humidity was changed in a stepwise manner in a chamber at 25° C., the weight change was recorded with time, and the equilibrium weight was calculated at each humidity. On the basis of the weight at a dried condition (0% RH), the weight change rate and hydration number at each humidity were calculated.
Hygroscopicity or deliquescency was evaluated as follows by using a moisture adsorption measurement device DVS-1 or DVS-intrinsic (Surface Measurement Systems Limited). Each sample was placed into a cell of which the tare weight had been corrected in advance, and the cell was hung on the precision balance of said device to precisely measure the weight at the start of measurement. The humidity was changed in a stepwise manner, the weight change was recorded with time, and the equilibrium weight was calculated at each humidity. On the basis of the weight of anhydride converted from the amount of water at a dried condition (0% RH) or at the start of measurement observed by an alternative method, the weight change rate at each humidity was calculated.

[5] = Chemical stability evaluation (storage 1 week, liquid chromatography peak area %); type: physicochemical; settings: did not show a significant increase of related substances
Protocol: Each about 1 mg of a sample stored at 60° C. (sealed) or 60° C./75% RH (open) for 1 week and an unstored sample (at the start of test) was dissolved into a mixed solution of acetonitrile/water (1:1) (5 mL) to obtain each sample solution. A test was carried out by liquid chromatographic method under the following conditions to measure each peak area (%).
Each peak area (%) was measured by using Waters ACQUITY UPLC under the following conditions. • Detector: Photodiode array (measurement wavelength: 239 nm) • Column: Waters ACQUITY BEH C18 (2.1 mm×100 mm, 1.7 μm) • Column temperature: constant temperature about 40° C. • Mobile phase: Solution A; water/TFA (2000:1), Solution B; Acetonitrile/TFA (2000:1) • Concentration gradient control: B % 2→100% (15 minutes) • Flow rate: 0.5 mL/min • Injection volume: 2 μL
Each sample was stored at 60° C. under a sealed condition and at 60° C. under 75% RH for 1 week, and an increase or decrease of related substance(s) after the storage was calculated by high-performance liquid chromatographic method on the basis of the area percentage of each peak. Also, the condition of each sample after the storage was observed.

[6] = Omeprazole, reduced gastric acid secretion
[7] = Pentagastrin, increased gastric acid secretion

| SMILES | Cmax [1, 6] [ng/mL] | Cmax [1, 7] [ng/mL] | AUC(0-inf) [1, 6] [ng·h/mL] | AUC(0-t) [1, 6] [ng·h/mL] | Tmax [1, 6] [h] | half-life [1, 6] [min] | AUC(0-inf) [1, 7] [ng·h/mL] | AUC(0-t) [1, 7] [ng·h/mL] | Tmax [1, 7] [h] | half-life [1, 7] [min] | further results |
| --- | --- | --- | --- | --- | --- | --- | --- | --- | --- | --- | --- |
| CC(=O)N[C@H]1CC[C@H](NC(=O)CN2CCN(c3nncc(-c4ccc(C)cc4)n3)CC2)CC1 [Triazine compound A, 3-[4-[[trans-4-(acetamino)cyclohexyl]carbamoylmethyl]piperazin-1-yl]-5-(p-tolyl)-1,2,4-triazine] | 102 | 222 | 1000 | 943 | 3.33 | 336 | 1910 | 1690 | 1.42 | 256 | Reduction of AUC under reduced gastric acid conditions as compared to increased gastric acid secretion conditions ([1]; oral 10 mg): about 50%; Reduction of Cmax under reduced gastric acid conditions as compared to increased gastric acid secretion conditions ([1]; oral 10 mg): about 50%; IC50 [2]: 9 nM |
| Br.CC(=O)N[C@H]1CC[C@H](NC(=O)CN2CCN(c3nncc(-c4ccc(C)cc4)n3)CC2)CC1 [Hydrobromide Form A crystal, 3-[4-[[trans-4-(acetamino)cyclohexyl]carbamoylmethyl]piperazin-1-yl]-5-(p-tolyl)-1,2,4-triazine hydrobromide] | 256 | 263 | 2030 | 1990 | 1.83 | 258 | 2020 | 1990 | 1.67 | 254 | Thermal stability TG: weight change [3]: 0.9%; Thermal stability TG: weight change ([3]; Table 10): 0.98; Thermal stability, conclusion in words ([3]; did not show a significant weight change (Succinate Form A: at 25 to 148° C., melting point)): excellent thermal stability; Hygroscopicity or Deliquescency Weight change at 90% RH ([4]; Table 5, 25° C., relative to weight at 0% RH): 1.0%; Hygroscopicity or Deliquescency Weight change at 90% RH ([4]; Table 10, *1 with hydration stage): 1.0% ^; Hygroscopicity or deliquescency, conclusion in words ([4]; from Table 5): excellent in the reduced hygroscopicity or deliquescency; Chemical stability, conclusion in words [5]: excellent chemical stability; Change of plasma concentration with the gastric acid conditions ([1]; oral 10 mg free form equivalent, pentagastrin vs omeprazole): not changed |
